The test system of assay [1] is Rat aorta smooth muscle cells (RASMC). Description: [3H]-Thymidine incorporation assay in RASMC. In kind it is cell-based. The following applies: read-out: Inhibition of Growth Factor Stimulated Uptake of [3H]-thymidine (IC50). As for the experimental part:
Cell Culture Rat aorta smooth muscle cells (RASMC) were isolated from the thoracic aorta of rats and explanted according to the method of Ross, J. Cell. Biol., 30:172-186 (1971). Cells were grown in Dulbecco's modified Eagle's medium (DMEM, Gibco) containing 10% fetal calf serum (FBS, Hyclone, Logan, Utah), 1% glutamine (Gibco) and 1% penicillin/streptomycin (Gibco). Cells were identified as smooth muscle cells by their "hill and valley" growth pattern and by fluorescent staining with a monoclonal antibody specific for SMC […] (Sigma). RASMC were used between passages 5 and 20 for all experiments. Test compounds were prepared in dimethylsulfoxide (DMSO) in order to achieve consistency in the vehicle and to ensure compound solubility. Appropriate DMSO controls were simultaneously evaluated with the test compounds. […] RASMC were plated into a 24-well plate (30,000 cells/well) in DMEM with 10% FBS. After 4 days, cells reached confluence and were made quiescent by incubation in DMEM/F12 medium (Gibco) containing 0.2% FBS for another 2 days. […] […] The acid-insoluble fraction was lysed in 0.75 mL 0.25N NaOH and the radioactivity determined by liquid scintillation counting. IC50 values were determined graphically.

The target of assay [2] is T1, mouse PDGF-β receptor tyrosine kinase (Mus musculus, UniProt P05622).
T1 construct: a fragment of DNA that codes for the intracellular tyrosine kinase domain; made in house; host or cells: Sf9 insect cells (baculovirus), cell lysate
Description: PDGF receptor tyrosine kinase assay. In kind it is biochemical. The conditions noted are these: read-out: Inhibition of Protein Tyrosine Kinases, PDGF, IC50. The essentials:
(§1)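 Intracellular kinase domains expressed in baculovirus-infected SF9 cells; crude lysate used as enzyme. Inhibitor preincubated 10 min at 25 °C with lysate in pH 7.0 Hepes buffer with 10 mM MnCl2 and poly(Glu-Tyr) 4:1, then γ-32P-ATP (50 μM ATP) added for 10 min at 25 °C. TCA-precipitated 32P on filters counted, no-enzyme background subtracted.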

Assay [3] deals with PDGF receptor. Put plainly: PDGF receptor autophosphorylation in RASMC. In kind it is cell-based, rat. The following applies: PDGF-BB 30 ng/mL, read-out: Inhibition of PDGF Stimulated Receptor Auto Phosphorylation (IC50).
Description: Rat aorta smooth muscle cells (RASMC) were isolated from the thoracic aorta of rats and explanted according to the method of Ross, J. Cell. […] Cells were grown in Dulbecco's modified Eagle's medium (DMEM, Gibco) containing 10% fetal calf serum (FBS, Hyclone, Logan, Utah), 1% glutamine (Gibco) and 1% penicillin/streptomycin (Gibco). Cells were identified as smooth muscle cells by their "hill and valley" growth pattern and by fluorescent staining with a monoclonal antibody specific for SMC μ-actin (Sigma). RASMC were used between passages 5 and 20 for all experiments. Test compounds were prepared in dimethylsulfoxide (DMSO) in order to achieve consistency in the vehicle and to ensure compound solubility. Appropriate DMSO controls were simultaneously evaluated with the test compounds.
PDGF Receptor Autophosphorylation
RASMC were grown to confluency in 100 mm dishes. Growth medium was removed and replaced with serum-free medium and cells were incubated at 37° C. for an additional 24 hours. Test compounds were then added directly to the medium and cells incubated for an additional 2 hours. After 2 hours, PDGF-BB was added at a final concentration of 30 ng/mL for 5 minutes at 37° C. to stimulated autophosphorylation of the PDGF receptor. Following growth factor treatment, the medium was removed, and cells were washed with cold phosphate-buffered saline and immediately lysed with 1 mL of lysis buffer (50 mM HEPES[pH 7.5], 150 mM NaCl, 10% glycerol, 1% Triton X-100, 1 mM EDTA, 1 mMEGTA, 50 mM NaF, 1 mM sodium orthovanadate, 30 mM p-nitrophenyl phosphate, 10 mM sodium pyrophosphate, 1 mM phenylmethyl sulfonyl fluoride, 10 μg/mL aprotinin, and 10 μg/mL leupeptin). Lysates were centrifuged at 10,000×g for 10 minutes. […] Following the incubation, protein-A-sepharose beads were added for 2 hours with continuous mixing, and immune complexes bound to the beads washed 4 times with 1 mL lysis wash buffer. Immune complexes were solubilized in 30 μL of Laemmli sample buffer and electrophoresed in 4-20% SDS polyacrylamide gels. Following electrophoresis, separated proteins were transferred to nitrocellulose and immunoblotted with anti-phosphotyrosine antiserum. […] IC50 values were generated from the densitometric data.
Assay [4] relates to V-src kinase. Put plainly: V-src kinase assay. In kind it is biochemical. The conditions noted are these: at 50 μM. The essentials:
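Baculovirus-expressed v-src or c-src, immunopurified on antibody-coated latex beads, phosphorylated poly GluTyr with 5 μM ATP including [32P]-ATP in Tris pH 7.5/MgCl2. Reaction ran 10 min at room temperature, TCA/pyrophosphate quench, then filtered. Incorporated label counted by liquid scintillation and compared with solvent control.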

Assay [5] addresses T2, human FGF-1 (flg) receptor tyrosine kinase (Homo sapiens, UniProt P11362).
T2 construct: a fragment of DNA that codes for the intracellular tyrosine kinase domain; made in house; host or cells: Sf9 insect cells (baculovirus), cell lysate
Put plainly: FGF receptor tyrosine kinase assay. The conditions noted are these: read-out: Inhibition of Protein Tyrosine Kinases, FGF, IC50. The assay is classed as biochemical. The essentials: as §1

Assay [6] deals with T3, C-src kinase (Homo sapiens, UniProt P12931).
T3 construct: made in house; host or cells: baculovirus-infected insect cells
Description: C-src kinase assay. The assay is classed as biochemical. The following applies: read-out: Inhibition of Protein Tyrosine Kinases, C-src, IC50. The essentials:
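Baculovirus-expressed c-src immunopurified on antibody-coated latex beads, assayed in 40 mM Tris pH 7.5, 5 mM MgCl2 with poly GluTyr substrate and 5 μM ATP plus 32P-ATP. Reaction 10 min at room temperature, TCA-quenched, filtered; incorporated label counted by scintillation.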

Assay [7] relates to Streptococcus pneumoniae. Description: standard in vitro assays of antibacterial activity. The assay is classed as cell-based. The following applies: Gram+ bacterial strain. From the text: These compounds are potent inhibitors of one or more of the protein kinases, PDGF, FGF, EGF, V-src, and C-src. The invention compounds are thus useful in treating atherosclerosis, restenosis, and cancer. Specific tumors to be treated with the compounds include small-cell lung carcinoma such as that described in An. Rev. Respir. Dis., 142:554-556 (1990); human breast cancer as described in Cancer Research, 52:4773-4778 (1992); low grade human bladder carcinomas of the type described in Cancer Research, 52:1457-1462 (1992); human colorectal cancer as discussed in J. Clin. Invest., 91:53-60 (1993); and in J. Surg. Res., 54:293-294 (1993). The compounds also are useful as antibiotics against bacteria such as Streptococcus pneumoniae. […] The compounds additionally are useful as herbicides against a wide variety of undesirable plants such as broad leaf weeds and grasses.

Assay [8] deals with T4, Human EGF receptor tyrosine kinase (Homo sapiens, UniProt P00533).
T4 construct: isolated from A431 epidermoid carcinoma cells; endogenous in cells; host or cells: A431 epidermoid carcinoma cells (Triton lysate, wheat germ agglutinin eluate)
Description: EGF receptor tyrosine kinase assay. The assay is classed as biochemical. The conditions noted are these: read-out: Inhibition of Protein Tyrosine Kinases, EGF, IC50. The protocol: Purification of Epidermal Growth Factor Receptor Tyrosine Kinase
Human EGF receptor tyrosine kinase was isolated from A431 epidermoid carcinoma cells by the following methods. Cells were grown in roller bottles in 50% Delbuco's Modified Eagle and 50% HAM F-12 nutrient media (Gibco) containing 10% fetal calf serum. Approximately 10^9 cells were lysed in two volumes of buffer containing 20 mM 2-(4N-[2-hydroxyethyl]piperazin-1-yl)ethanesulfonic acid, pH 7.4, 5 mM ethylene glycol bis(2-aminoethyl ether)N,N,N',N'-tetraacetic acid, 1% Triton X-100, 10% glycerol, 0.1 mM sodium orthovanadate, 5 mM sodium fluoride, 4 mM pyrophosphate, 4 mM benzamide, 1 mM dithiothreitol, 80 μg/mL aprotinin, 40 μg/mL leupeptin, and 1 mM phenylmethylsulfonyl fluoride. After centrifugation at 25,000×g for 10 minutes, the supernatant was equilibrated for 2 hours at 4° C. with 10 mL of wheat germ agglutinin sepharose that was previously equilibrated with 50 mM Hepes, 10% glycerol, 0.1% Triton X-100 and 150 mM NaCl, pH 7.5, (equilibration buffer). Contaminating proteins were washed from the resin with 1M NaCl in equilibration buffer, and the enzyme was eluted with 0.5M N-acetyl-1-D-glucosamine in equilibration buffer.
Determination of IC50 Values
The reaction was terminated by the addition of 2 mL of 75 mM phosphoric acid and passed through a 2.5-cm phosphocellulose filter disc to bind the peptide. The filter was washed five times with 75 mM phosphoric acid and placed in a vial along with 5 mL of scintillation fluid (Ready gel Beckman).

pIC50: −log10 of the molar value. Read-outs that look alike come from different tables or passages of the source. A value given as a limit tells only on which side of the number the result lay.

T1 sequence (P05622 599-961 limits assumed): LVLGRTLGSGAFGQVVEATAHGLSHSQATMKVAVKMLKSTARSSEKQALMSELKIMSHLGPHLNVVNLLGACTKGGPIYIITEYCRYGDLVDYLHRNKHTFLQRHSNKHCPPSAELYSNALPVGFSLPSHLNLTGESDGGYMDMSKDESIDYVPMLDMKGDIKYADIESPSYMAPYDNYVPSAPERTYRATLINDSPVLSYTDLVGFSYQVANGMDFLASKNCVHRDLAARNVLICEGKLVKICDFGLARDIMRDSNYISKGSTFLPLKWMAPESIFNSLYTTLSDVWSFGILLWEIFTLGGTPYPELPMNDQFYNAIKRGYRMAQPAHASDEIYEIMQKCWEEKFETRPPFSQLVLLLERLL
T3 sequence (P12931 whole entry): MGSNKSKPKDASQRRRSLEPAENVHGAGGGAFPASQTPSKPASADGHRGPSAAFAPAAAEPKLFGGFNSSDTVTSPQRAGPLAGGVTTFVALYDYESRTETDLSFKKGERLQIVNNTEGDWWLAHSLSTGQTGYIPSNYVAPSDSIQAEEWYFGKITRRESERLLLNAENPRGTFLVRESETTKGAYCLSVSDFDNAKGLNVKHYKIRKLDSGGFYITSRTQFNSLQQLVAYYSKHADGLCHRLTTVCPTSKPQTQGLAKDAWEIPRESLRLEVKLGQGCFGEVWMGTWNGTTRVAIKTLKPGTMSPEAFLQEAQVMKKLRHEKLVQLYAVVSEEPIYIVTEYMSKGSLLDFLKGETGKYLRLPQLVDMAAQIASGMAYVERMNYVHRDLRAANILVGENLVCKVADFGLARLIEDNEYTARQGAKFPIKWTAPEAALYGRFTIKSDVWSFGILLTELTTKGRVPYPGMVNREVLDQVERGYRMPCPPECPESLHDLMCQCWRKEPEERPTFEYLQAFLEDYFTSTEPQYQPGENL
T2 sequence (P11362 478-767 limits assumed): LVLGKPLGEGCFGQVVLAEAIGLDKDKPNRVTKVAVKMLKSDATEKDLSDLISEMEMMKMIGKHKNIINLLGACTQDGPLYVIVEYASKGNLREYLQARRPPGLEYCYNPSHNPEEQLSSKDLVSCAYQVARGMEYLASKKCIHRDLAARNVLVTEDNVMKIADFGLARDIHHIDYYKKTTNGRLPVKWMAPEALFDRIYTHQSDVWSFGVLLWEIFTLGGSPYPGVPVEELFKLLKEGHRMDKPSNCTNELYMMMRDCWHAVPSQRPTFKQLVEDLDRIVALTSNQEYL
T4 sequence (P00533 25-1210): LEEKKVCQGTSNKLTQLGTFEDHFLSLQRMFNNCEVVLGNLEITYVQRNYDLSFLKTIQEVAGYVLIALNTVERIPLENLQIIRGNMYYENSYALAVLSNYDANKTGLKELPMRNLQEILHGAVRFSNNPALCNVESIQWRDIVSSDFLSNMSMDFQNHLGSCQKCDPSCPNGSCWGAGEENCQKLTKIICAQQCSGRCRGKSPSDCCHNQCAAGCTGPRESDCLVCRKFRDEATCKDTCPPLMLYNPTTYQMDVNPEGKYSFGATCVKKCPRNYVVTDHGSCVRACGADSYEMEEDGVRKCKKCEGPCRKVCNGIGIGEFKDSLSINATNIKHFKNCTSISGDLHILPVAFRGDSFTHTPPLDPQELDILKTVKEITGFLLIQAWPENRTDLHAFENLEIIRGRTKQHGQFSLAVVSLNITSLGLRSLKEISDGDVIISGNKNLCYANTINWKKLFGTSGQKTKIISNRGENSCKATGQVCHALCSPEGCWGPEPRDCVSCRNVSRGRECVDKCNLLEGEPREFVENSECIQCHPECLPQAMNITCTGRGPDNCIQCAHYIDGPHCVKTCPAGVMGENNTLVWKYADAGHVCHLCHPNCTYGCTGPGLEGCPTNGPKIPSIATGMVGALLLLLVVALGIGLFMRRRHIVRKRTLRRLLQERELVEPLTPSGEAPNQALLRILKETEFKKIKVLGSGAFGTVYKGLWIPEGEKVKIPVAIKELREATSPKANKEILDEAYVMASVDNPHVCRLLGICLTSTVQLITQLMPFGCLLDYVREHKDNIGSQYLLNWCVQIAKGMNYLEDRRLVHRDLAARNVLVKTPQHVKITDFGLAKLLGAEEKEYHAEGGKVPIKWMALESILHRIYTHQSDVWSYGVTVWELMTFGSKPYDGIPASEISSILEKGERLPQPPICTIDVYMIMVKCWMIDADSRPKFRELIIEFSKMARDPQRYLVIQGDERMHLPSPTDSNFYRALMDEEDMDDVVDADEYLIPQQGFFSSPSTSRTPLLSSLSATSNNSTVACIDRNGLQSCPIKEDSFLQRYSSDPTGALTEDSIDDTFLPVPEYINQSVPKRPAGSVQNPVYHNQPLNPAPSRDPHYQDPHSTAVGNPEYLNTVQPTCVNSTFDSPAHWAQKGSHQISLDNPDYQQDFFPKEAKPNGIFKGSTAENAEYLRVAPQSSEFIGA

As a reminder, the pIC50 is the IC50 on a negative log10 scale, so that one unit is a factor of ten. As for `CC(C)(C)NC(=O)Nc1nc2nc(N)ncc2cc1-c1c(Cl)cccc1Cl` [Example 3, 1-[2-Amino-6-(2,6-dichlorophenyl)-pyrido[2,3-d]pyrimidin-7-yl]-3-tert-butylurea], the pIC50 in assay [1] (FGF stimulated) is 6.05; in assay [1] (PDGF stimulated) it was 5.57; in assay [2], 5.90; in assay [3], 6.01; in assay [5], 6.85. Besides, the “Inhibition of Protein Tyrosine Kinases, V-src, % Inhibition” value in assay [4] turned out to be 46.8%.

Take `CCNC(=O)Nc1nc2nc(NCCCCN(CC)CC)ncc2cc1-c1c(Cl)cccc1Cl` [Example 124, 1-[6-(2,6-Dichlorophenyl)-2-(4-diethylamino-butyl-amino)-pyrido[2,3-d]pyrimidin-7-yl]-3-ethyl-urea]: the negative-log IC50 (pIC50) was 6.03 in assay [1] (FGF stimulated), 6.26 in assay [1] (PDGF stimulated) and 6.61 in assay [3].

Regarding `CCN(CC)CCCCNc1ncc2cc(-c3c(Cl)cccc3Cl)c(NC(=O)NC(C)(C)C)nc2n1` [Example 123, 1-tert-Butyl-3-[6-(2,6-dichlorophenyl)-2-(4-diethyl-amino-butylamino)-pyrido[2,3-d]pyrimidin-7-yl]-urea], the pIC50 in assay [1] (FGF stimulated) is 6.49; in assay [1] (PDGF stimulated), over 6.52; in assay [3], 6.53; in assay [6], 7.54.

In the case of `CCCCNc1nc2nc(N)ncc2cc1-c1ccccc1` [Example 9, N^7 -Butyl-6-phenyl-pyrido[2,3-d]pyrimidine-2,7-diamine], the “activity against Streptococcus pneumoniae” value in assay [7] was “exhibited activity”. The results for the pIC50 in assay [2], in assay [5] and in assay [6] were 4.60, 4.98 and 4.74, respectively.

As to `Nc1cc2nc(N)c(-c3c(Cl)cccc3Cl)cc2cn1` [Example 18, 3-(2,6-Dichlorophenyl)-[1,6]-naphthyridine-2,7-diamine], the pIC50 is 4.74 in assay [8], 4.67 in assay [2], 5.92 in assay [5] and 6.29 in assay [6]. Also, in assay [7], the “activity against Streptococcus pneumoniae” value is “exhibited activity”. Moreover, the “Inhibition of Protein Tyrosine Kinases, V-src, % Inhibition” value in assay [4] worked out at 21.4%.

Turning to `CN1CCN(CCCNc2ncc3cc(-c4c(Cl)cccc4Cl)c(NC(=O)NC(C)(C)C)nc3n2)CC1` [Example 52, 1-tert-Butyl-3-{6-(2,6-dichlorophenyl)-2-[3-(4-methyl-piperazin-1-yl)-propylamino]-pyrido[2,3-d]pyrimidin-7-yl}-urea], the figures for the pIC50 in assay [1] (FGF stimulated), in assay [1] (PDGF stimulated) and in assay [3] were 6.40, 6.35 and 6.62, respectively.

The values above are taken from patent US5733913A, “6-Aryl pyrido[2,3-d] pyrimidines and naphthyridines for inhibiting protein tyrosine kinase mediated cellular proliferation” (priority 1995, dated 1998).
